Consider two compounds from patent publication US9353062B2, “Substituted quinolines as bruton's tyrosine kinases inhibitors” (HangzhouDeRenYuCheng Biotechnology Ltd, priority 2012, dated 2016).

The target of experiment [1] is T1, Btk (Homo sapiens (Human), UniProt Q06187). In words: Btk kinase assay, method B (Kinase-Glo Plus luminescence). It is filed as biochemical. The following applies: 10 μM ATP. The procedure: (§1) An in vitro assay which determines the ability of a test compound to inhibit Btk.
b) Method B conducts the kinase assay with the following condition and procedure: The assay was performed using Kinase-Glo Plus luminescence kinase assay kit (Promega). It measures kinase activity by quantitating the amount of ATP remaining in solution following a kinase reaction. The luminescent signal from the assay is correlated with the amount of ATP present and is inversely correlated with the amount of kinase activity.
The compounds were diluted in 10% DMSO and 5 μl of the dilution was added to a 50 μl reaction so that the final concentration of DMSO is 1% in all of reactions. All of the enzymatic reactions were conducted at 30° C. for 40 minutes. […] After the enzymatic reaction, 50 μl of Kinase-Glo Plus Luminescence kinase assay solution (Promega) was added to each reaction and incubate the plate for 5 minutes at room temperature. Luminescence signal was measured using a BioTek Synergy 2 microplate reader. […] The luminescence data were analyzed using the computer software, Graphpad Prism. The difference between luminescence intensities in the absence of Btk (Lut) and in the presence of Btk (Luc) was defined as 100% activity (Lut−Luc). […] The IC50 value was determined by the concentration causing a half-maximal percent activity. […]

For experiment [2], the target named is T1, Btk. In words: Btk kinase assay, method A (33P-ATP radiometric). In kind it is biochemical. To be noted: 10 μM ATP. The procedure:
as §1
a) Method A conducts the kinase assay with the following condition and procedure: Reagent: Base Reaction Buffer; 20 mM Hepes (pH 7.5), 10 mM MgCl2, 1 mM EGTA, 0.02% Brij35, 0.02 mg/ml BSA, 0.1 mM Na3VO4, 2 mM DTT, 1% DMSO.
1. Prepare indicated substrate in freshly prepared Base Reaction Buffer.
2. Deliver any required cofactors to the substrate solution obtained in step 1.
3. Deliver indicated kinase into the substrate solution prepared in step 2 and gently mix.
4. Deliver compounds in DMSO into the kinase reaction mixture prepared in step 3.
5. Deliver ^33P-ATP (specific activity 0.01 μCi/μl final) into the reaction mixture prepared in step 4 to initiate the reaction.
6. Incubate kinase reaction for 120 min. at room temperature.
7. Reactions are spotted onto P81 ion exchange paper (Whatman #3698-915).
8. Washing filters extensively in 0.75% Phosphoric acid.
Compounds were tested in 10-dose IC50 mode with 3-fold serial dilution starting at 10 μM; Reactions were carried out at 10 μM ATP.

Experiment [3] deals with BTK signaling in Ramos cells. In words: Btk Ramos Cellular Assay (phosphorylation of BTK substrate PLCγ2). To be noted: 1 hour compound incubation, anti-human IgM stimulation, PLCγ2 phosphorylation blot, read-out: inhibition of BTK signaling in Ramos cells, IC50. In kind it is cell-based. The procedure: Ramos cells were grown in suspension in T225 flasks, spun down, resuspended in 50 mL serum-free media and incubated for 1 hour. Compound was added to Ramos cells in serum free media to a final concentration of 1, 0.1, 0.01, or 0.001 μM. Ramos cells were incubated with compound for 1 hour, washed again and resuspended in 100 μL serum-free media. Cells were then stimulated with 1 μg of goat F(ab′)2 Anti-Human IgM and incubated on ice for 10 minutes to activate B cell receptor signaling pathways. After 10 minutes, the cells were washed once with PBS and then lysed on ice with Invitrogen Cell Extraction buffer. Sixteen μg total protein from lysates was loaded on gels and blots were probed for phosphorylation of the BTK substrate PLCγ2.

Where only a bound is given, the exact number is not on record here.

T1 sequence (Q06187 whole entry, species assumed): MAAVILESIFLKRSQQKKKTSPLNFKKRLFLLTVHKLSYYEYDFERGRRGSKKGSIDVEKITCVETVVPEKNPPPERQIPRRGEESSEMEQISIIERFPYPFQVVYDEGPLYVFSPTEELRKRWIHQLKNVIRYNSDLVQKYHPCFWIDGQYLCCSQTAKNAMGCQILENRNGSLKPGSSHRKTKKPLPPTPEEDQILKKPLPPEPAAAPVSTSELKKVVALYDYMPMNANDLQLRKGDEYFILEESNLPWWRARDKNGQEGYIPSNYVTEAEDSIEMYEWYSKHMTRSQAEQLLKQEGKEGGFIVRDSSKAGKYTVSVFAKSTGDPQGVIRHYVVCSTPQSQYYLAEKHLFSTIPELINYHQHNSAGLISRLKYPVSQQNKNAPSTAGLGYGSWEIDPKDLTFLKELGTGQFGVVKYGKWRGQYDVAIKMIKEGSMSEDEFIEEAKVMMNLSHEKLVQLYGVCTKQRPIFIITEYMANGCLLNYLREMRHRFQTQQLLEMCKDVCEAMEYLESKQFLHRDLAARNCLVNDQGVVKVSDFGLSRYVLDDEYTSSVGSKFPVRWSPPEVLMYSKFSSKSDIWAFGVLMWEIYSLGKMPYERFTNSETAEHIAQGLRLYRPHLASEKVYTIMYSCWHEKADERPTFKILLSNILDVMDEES

As for `CN(C)C/C=C/C(=O)Nc1ccc2ncc(C#N)c(Nc3ccc(Oc4ccccc4)cc3)c2c1` [Example 2, (E)-N-(3-cyano-4-((4-phenoxyphenyl)amino)quinolin-6-yl)-4-(dimethylamino)but-2-enamide], at Btk [1], the half-maximal inhibitory concentration (IC50) is below 100 nM.

As to `CCOc1cc2ncc(C#N)c(Nc3ccc(Oc4ccccc4)cc3)c2cc1NC(=O)/C=C/CN(C)C` [Example 1, (E)-N-(3-cyano-7-ethoxy-4-((4-phenoxyphenyl)amino)quinolin-6-yl)-4-(dimethylamino)but-2-enamide], the IC50 is 0.64 nM against Btk [2], below 100 nM in experiment [3] and below 100 nM at Btk [1].
